Data from patent EP0761679A1, “N-Butylsulfonate esters of estrogens” (ELI LILLY AND COMPANY, priority 1995, dated 1997).

Test system: ovariectomized rat
Test: ovariectomized (ovex) rat model, uterine wet weight after four days of oral treatment
Type: in vivo, Sprague Dawley rats
Conditions: 96 h, 0.1 mg/kg P.O. (gavage in 0.5 mL of 1% carboxymethylcellulose suspension), ovariectomized female rats, read-out: Uterine weight as percent control @ 0.1 mg/kg P.O.
Protocol: Seventy-five day old female Sprague Dawley rats (weight range of 225-275 g) were obtained from Charles River Laboratories (Portage, MI). The animals were either bilaterally ovariectomized or exposed to a sham surgical procedure at Charles River Laboratories, and then shipped after one week. They were housed in groups of three and had ad libitum access to food and water. Room temperature was maintained at 22.2° C with 40% relative humidity. The photo-period was 12 hours of light and 12 hours of darkness. One week after arrival (thus, 14 days post-ovariectomy), the rats were treated with vehicle, 17-α-ethinyl estradiol, parent hydroxy estrogens, or a compound of formula I was initiated. After four days of treatment, blood was collected by cardiac puncture, the animals were sacrificed by carbon dioxide asphyxiation and the uteri were removed and wet weight determined. […] All compounds were given by oral dosage (gavage in 0.5 mL of 1% carboxymethylcellulose suspension). For comparison purposes, the data represented are for 0.1 mg/kg for all compounds. The positive control was 0.1 mg/kg of 17-α-ethinyl estradiol, a known, orally available estrogen.

| SMILES | response vs control in vivo at 0.1 mg/kg [%] |
| --- | --- |
| CCCCS(=O)(=O)Oc1ccc2c(c1)CC=C1[C@@H]2CC[C@]2(C)C(=O)CC[C@@H]12 [3-n-butylsulfonoyl equilin] | 119 |
| C[C@]12CC[C@@H]3c4ccc(O)cc4CC[C@H]3[C@@H]1CCC2=O [Estrone] | 35 |
| C[C@]12CC[C@@H]3c4ccc(OS(C)(=O)=O)cc4CC[C@H]3[C@@H]1CCC2=O [3-methanesulfonoyl estrone] | 0 |
| C[C@]12CC[C@@H]3c4ccc(OS(=O)(=O)c5ccccc5)cc4CC[C@H]3[C@@H]1CCC2=O [3-phenylsulfonoyl estrone] | 10 |
| C[C@]12CC[C@@H]3c4ccc(O)cc4CC[C@H]3[C@@H]1CC[C@@H]2O [17-β-estradiol] | 43 |
| CCCCS(=O)(=O)Oc1ccc2c(c1)CC[C@@H]1[C@@H]2CC[C@]2(C)C(=O)CC[C@@H]12 [3-n-butylsulfonyl estrone, 3-n-butylsulfonoyl estrone] | 67 |
| C[C@]12CC[C@@H]3c4ccc(OS(C)(=O)=O)cc4CC[C@H]3[C@@H]1CC[C@@H]2OS(C)(=O)=O [3,17-β-di-methanesulfonoyl estradiol] | 0 |
| C[C@]12CC[C@@H]3c4ccc(OS(=O)(=O)c5ccccc5)cc4CC[C@H]3[C@@H]1CC[C@@H]2O [3-phenylsulfonoyl-17-β-estradiol] | 0 |
| CCCCS(=O)(=O)Oc1ccc2c(c1)CC[C@@H]1[C@@H]2CC[C@]2(C)[C@@H](OS(=O)(=O)CCCC)CC[C@@H]12 [3,17-β-di-n-butylsulfonoyl estradiol] | 112 |
| C[C@]12CC[C@H]3C(=CCc4cc(O)ccc43)[C@@H]1CCC2=O [Equilin] | 47 |
| C[C@]12CC[C@@H]3c4ccc(OS(C)(=O)=O)cc4CC[C@H]3[C@@H]1CC[C@@H]2O [3-methanesulfonoyl-17-β-estradiol] | 17 |
